In patent US20160353738A1, “SYNERGISTIC HERBICIDAL COMPOSITION CONTAINING PENOXSULAM, TRICLOPYR AND BISPYRIBAC” (Dow AgroSciences LLC, priority 2014, published 2016):

Legend:
[1] = test system: Digitaria species (DIGSS); test: Postemergence herbicidal activity of mixtures in the field (rice small plots), visual weed control; assay type: in vivo; settings: 50 g ai/ha
Source text: (§1) Bispyribac was used as Nominee® 100SC or Nominee® 400SC.
(§2) As such, Colby's equation simplifies to […]

[2] = test system: Echinochloa colonum (L.) LINK (junglerice, ECHCO); test: as above; assay type: in vivo; settings: 30 DAA, 52 g ai/ha
Source text: as §1, §2

[3] = test system: Ischaemum rugosum (Saramollagrass, ISCRU); test: as above; assay type: in vivo; settings: 50 g ai/ha
Source text: as §1, §2

[4] = test system: Rottboellia exaltata (Guineafowlgrass, ROOEX); test: as above; assay type: in vivo; settings: 50 g ai/ha
Source text: as §1, §2

[5] = test system: Rice (Oryza Sativa, ORYSA); test: Safening activity to rice in the field, visual crop injury; settings: 50 g ai/ha
Experimental: The treated plots and control plots were rated blind at various intervals after application.
Colby's equation was used to determine the herbicidal effects expected from the mixtures (Colby, S. R. Calculation of the synergistic and antagonistic response of herbicide combinations. Weeds 1967, 15, 20-22).
However, the experiments described herein were performed such that active ingredients A and B were combined and only the efficacy of the combination was determined. As such, Colby's equation simplifies to […]

Compound: COc1cc(OC)nc(Oc2cccc(Oc3nc(OC)cc(OC)n3)c2C(=O)[O-])n1.[Na+] [Bispyribac-Sodium, sodium 2,6-bis((4,6-dimethoxypyrimidin-2-yl)oxy)benzoate]
- Percent (%) Visual Control ([1]; 6 DAA): 93%
- Percent (%) Visual Control ([1]; 17 DAA): 88%
- Percent (%) Visual Control [2]: 86.25%
- Percent (%) Visual Control ([3]; 6 DAA): 0%
- Percent (%) Visual Control ([3]; 12 DAA): 30%
- Percent (%) Visual Control ([3]; 16 DAA): 46.8%
- Percent (%) Visual Control ([3]; 17 DAA): 0%
- Percent (%) Visual Control ([3]; 27 DAA): 9.25%
- Percent (%) Visual Control ([3]; 32 DAA): 0%
- Percent (%) Visual Control ([3]; 40 DAA): 0%
- Percent (%) Visual Control ([4]; 16 DAA): 87.3%
- Percent (%) Visual Control ([4]; 32 DAA): 69.5%
- Percent (%) Crop Injury ([5]; 6 DAA): 2.2%
- Percent (%) Crop Injury ([5]; 17 DAA): 0.9%
- Percent (%) Crop Injury ([5]; 27 DAA): 3%
